This test deals with trypsin (Sus scrofa, UniProt P00761). Description: casein digestion protease inhibition assay, absorbance at […] nm. In kind it is biochemical.
Setting [1] is: read-out: IC50 (mg/mL) * (converted).

Read-outs that look alike come from different tables or passages of the source.

Chain of trypsin (P00761 9-231): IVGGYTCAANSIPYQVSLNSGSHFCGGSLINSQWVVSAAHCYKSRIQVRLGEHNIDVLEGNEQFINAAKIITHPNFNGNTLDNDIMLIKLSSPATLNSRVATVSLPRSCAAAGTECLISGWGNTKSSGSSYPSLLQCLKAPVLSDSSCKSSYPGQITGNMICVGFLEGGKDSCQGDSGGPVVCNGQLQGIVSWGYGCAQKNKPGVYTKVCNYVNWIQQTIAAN

With `CC(=O)Oc1ccccc1C(=O)O` [acetylsalicylic acid, reference compound], the IC50 was 2250 µM.

For the molecule `CCOC(=O)COc1ccccc1C(=O)Nc1ccccc1Br` [EE, [2-(2-bromophenylcarbamoyl)phenoxy]acetic acid ethyl ester], the IC50 under setting [1] was 115 µM.

For the molecule `NNC(=O)COc1ccccc1C(=O)Nc1ccccc1Br` [HD, N-(2-bromo-phenyl)-2-hydrazinocarbonylmethoxy-benzamide], under setting [1], the IC50 was 171 µM.

As to `O=C(COc1ccccc1C(=O)Nc1ccccc1Br)NN=Cc1cc(Br)ccc1O` [HN, 2-(5-bromo-2-hydroxy-benzylidene-hydrazinocarbonylmethoxy)-N-(2-bromo-phenyl)-benzamide], the IC50 under setting [1] was 102 µM.

These data come from publication PMC12300325, “Antimicrobial and Anti-Inflammatory Activity of N-(2-Bromo-phenyl)-2-hydroxy-benzamide Derivatives and Their Inclusion Complexes” (Pharmaceutics, 2025).
